# Source: ChEMBL document CHEMBL3885861, “Open TG-GATES”
# Species: Rattus norvegicus
# Test: Open TG-GATES - Regimen: Daily Repeat
# Assay type: toxicity, organism-based, Sprague-Dawley
# Set-up: regimen Daily Repeat, gender Male, age 6 weeks
# Conditions: in vivo, po, 0 mg/kg, route gavage, dose level Control; for APTT / Bas / Eos / Fbg / Hb / Ht / Lym / MCH / MCHC / MCV / Mono / Neu / PT / Plat / RBC / Ret / WBC: tissue Blood; for KIDNEY_L / KIDNEY_R / KIDNEY_TOTAL: tissue Kidney; for LIVER: tissue Liver; for A/G / ALP / ALT / AST / BUN / CRE / Ca / Cl / DBIL / GLC / IP / K / LDH / Na / PL / RALB / TBIL / TC / TG / TP / gamma-GTP: tissue Plasma
structure (smiles),measurement,setting,value
CC[C@H]1[C@@H]2C[C@H]3[C@@H]4N(C)c5ccccc5[C@]45C[C@@H]([C@@H]2[C@H]5O)N3[C@@H]1O [AJMALINE],TERMINAL_BW,"72 h, time 3 day",211 g
same,APTT,"72 h, time 3 day",16.4 s
same,Bas,"72 h, time 3 day",0%
same,Eos,"72 h, time 3 day",1%
same,Fbg,"72 h, time 3 day",218.4 mg/dL
same,Hb,"72 h, time 3 day",13 g/dL
same,Ht,"72 h, time 3 day",40.1%
same,Lym,"72 h, time 3 day",75.8%
same,MCH,"72 h, time 3 day",21.1 pg
same,MCHC,"72 h, time 3 day",32.4%
same,MCV,"72 h, time 3 day",65 fL
same,Mono,"72 h, time 3 day",10.4%
same,Neu,"72 h, time 3 day",13%
same,PT,"72 h, time 3 day",11.6 s
same,Plat,"72 h, time 3 day",115.1 x10_4/uL
same,RBC,"72 h, time 3 day",617.4 x10_4/ul
same,Ret,"72 h, time 3 day",8%
same,WBC,"72 h, time 3 day",104.3 x10_2/uL
same,KIDNEY_L,"72 h, time 3 day",0.9 g
same,KIDNEY_R,"72 h, time 3 day",1 g
same,KIDNEY_TOTAL,"72 h, time 3 day",1.9 g
same,LIVER,"72 h, time 3 day",10.3 g
same,A/G,"72 h, time 3 day",2.2
same,ALP,"72 h, time 3 day",1003.6 IU/L
same,ALT,"72 h, time 3 day",37 IU/L
same,AST,"72 h, time 3 day",63.8 IU/L
same,BUN,"72 h, time 3 day",19.4 mg/dL
same,CRE,"72 h, time 3 day",0.5 mg/dL
same,Ca,"72 h, time 3 day",11.1 mg/dL
same,Cl,"72 h, time 3 day",102.8 meq/L
same,DBIL,"72 h, time 3 day",0.008 mg/dL
same,GLC,"72 h, time 3 day",199.8 mg/dL
same,IP,"72 h, time 3 day",7.4 mg/dL
same,K,"72 h, time 3 day",4.5 meq/L
same,LDH,"72 h, time 3 day",87.6 IU/L
same,Na,"72 h, time 3 day",140 meq/L
same,PL,"72 h, time 3 day",152.6 mg/dL
same,RALB,"72 h, time 3 day",3.9 g/dL
same,TBIL,"72 h, time 3 day",0.3 mg/dL
same,TC,"72 h, time 3 day",79.4 mg/dL
same,TG,"72 h, time 3 day",101.4 mg/dL
same,TP,"72 h, time 3 day",5.8 g/dL
same,gamma-GTP,"72 h, time 3 day",1.8 IU/L
same,TERMINAL_BW,"[…], time 7 day",249.2 g
same,TERMINAL_BW,"[…], time 14 day",302.2 g
same,TERMINAL_BW,"[…], time 28 day",382 g
same,APTT,"[…], time 7 day",16.1 s
same,Bas,"[…], time 7 day",0%
same,Eos,"[…], time 7 day",1%
same,Fbg,"[…], time 7 day",220.4 mg/dL
same,Hb,"[…], time 7 day",13 g/dL
same,Ht,"[…], time 7 day",39.8%
same,Lym,"[…], time 7 day",82.2%
same,MCH,"[…], time 7 day",20.6 pg
same,MCHC,"[…], time 7 day",32.6%
same,MCV,"[…], time 7 day",63.3 fL
same,Mono,"[…], time 7 day",5%
same,Neu,"[…], time 7 day",12.2%
same,PT,"[…], time 7 day",11.2 s
same,Plat,"[…], time 7 day",125.7 x10_4/uL
same,RBC,"[…], time 7 day",629.6 x10_4/ul
same,Ret,"[…], time 7 day",7%
same,WBC,"[…], time 7 day",107.8 x10_2/uL
same,APTT,"[…], time 14 day",17.8 s
same,Bas,"[…], time 14 day",0%
same,Eos,"[…], time 14 day",0.8%
same,Fbg,"[…], time 14 day",211.6 mg/dL
same,Hb,"[…], time 14 day",13.6 g/dL
same,Ht,"[…], time 14 day",41.6%
same,Lym,"[…], time 14 day",84.6%
same,MCH,"[…], time 14 day",20.6 pg
same,MCHC,"[…], time 14 day",32.9%
same,MCV,"[…], time 14 day",62.5 fL
same,Mono,"[…], time 14 day",4%
same,Neu,"[…], time 14 day",11%
same,PT,"[…], time 14 day",11.4 s
same,Plat,"[…], time 14 day",121.9 x10_4/uL
same,RBC,"[…], time 14 day",664.2 x10_4/ul
same,Ret,"[…], time 14 day",3.8%
same,WBC,"[…], time 14 day",121.7 x10_2/uL
same,APTT,"[…], time 28 day",17.6 s
same,Bas,"[…], time 28 day",0%
same,Eos,"[…], time 28 day",1.2%
same,Fbg,"[…], time 28 day",226.2 mg/dL
same,Hb,"[…], time 28 day",15.2 g/dL
same,Ht,"[…], time 28 day",45.3%
same,Lym,"[…], time 28 day",83.8%
same,MCH,"[…], time 28 day",19.1 pg
same,MCHC,"[…], time 28 day",33.5%
same,MCV,"[…], time 28 day",57 fL
same,Mono,"[…], time 28 day",5.6%
same,Neu,"[…], time 28 day",9.6%
same,PT,"[…], time 28 day",11.4 s
same,Plat,"[…], time 28 day",125.9 x10_4/uL
same,RBC,"[…], time 28 day",794.6 x10_4/ul
same,Ret,"[…], time 28 day",2%
same,WBC,"[…], time 28 day",105.2 x10_2/uL
same,KIDNEY_L,"[…], time 7 day",1 g
same,KIDNEY_R,"[…], time 7 day",1.1 g
same,KIDNEY_TOTAL,"[…], time 7 day",2.1 g
same,KIDNEY_L,"[…], time 14 day",1.2 g
same,KIDNEY_R,"[…], time 14 day",1.3 g
same,KIDNEY_TOTAL,"[…], time 14 day",2.5 g
same,KIDNEY_L,"[…], time 28 day",1.4 g
same,KIDNEY_R,"[…], time 28 day",1.4 g
same,KIDNEY_TOTAL,"[…], time 28 day",2.9 g
same,LIVER,"[…], time 7 day",12.3 g
same,LIVER,"[…], time 14 day",13.9 g
same,LIVER,"[…], time 28 day",16.5 g
same,A/G,"[…], time 7 day",1.9
same,ALP,"[…], time 7 day",1031.8 IU/L
same,ALT,"[…], time 7 day",37.4 IU/L
same,AST,"[…], time 7 day",67 IU/L
same,BUN,"[…], time 7 day",18.4 mg/dL
same,CRE,"[…], time 7 day",0.5 mg/dL
same,Ca,"[…], time 7 day",11.1 mg/dL
same,Cl,"[…], time 7 day",104.2 meq/L
same,DBIL,"[…], time 7 day",0.004 mg/dL
same,GLC,"[…], time 7 day",206.8 mg/dL
same,IP,"[…], time 7 day",7.9 mg/dL
same,K,"[…], time 7 day",4.4 meq/L
same,LDH,"[…], time 7 day",80.4 IU/L
same,Na,"[…], time 7 day",142.4 meq/L
same,PL,"[…], time 7 day",154 mg/dL
same,RALB,"[…], time 7 day",3.7 g/dL
same,TBIL,"[…], time 7 day",0.3 mg/dL
same,TC,"[…], time 7 day",79.8 mg/dL
same,TG,"[…], time 7 day",126.4 mg/dL
same,TP,"[…], time 7 day",5.7 g/dL
same,gamma-GTP,"[…], time 7 day",1.2 IU/L
same,A/G,"[…], time 14 day",1.9
same,ALP,"[…], time 14 day",756.6 IU/L
same,ALT,"[…], time 14 day",31 IU/L
same,AST,"[…], time 14 day",61.4 IU/L
same,BUN,"[…], time 14 day",20.6 mg/dL
same,CRE,"[…], time 14 day",0.5 mg/dL
same,Ca,"[…], time 14 day",10.9 mg/dL
same,Cl,"[…], time 14 day",104.2 meq/L
same,DBIL,"[…], time 14 day",0.008 mg/dL
same,GLC,"[…], time 14 day",206 mg/dL
same,IP,"[…], time 14 day",7.2 mg/dL
same,K,"[…], time 14 day",4.9 meq/L
same,LDH,"[…], time 14 day",90.6 IU/L
same,Na,"[…], time 14 day",141.6 meq/L
same,PL,"[…], time 14 day",148.4 mg/dL
same,RALB,"[…], time 14 day",3.8 g/dL
same,TBIL,"[…], time 14 day",0.3 mg/dL
same,TC,"[…], time 14 day",69.4 mg/dL
same,TG,"[…], time 14 day",126 mg/dL
same,TP,"[…], time 14 day",5.8 g/dL
same,gamma-GTP,"[…], time 14 day",1.4 IU/L
same,A/G,"[…], time 28 day",1.9
same,ALP,"[…], time 28 day",557 IU/L
same,ALT,"[…], time 28 day",29.8 IU/L
same,AST,"[…], time 28 day",57.6 IU/L
same,BUN,"[…], time 28 day",19.4 mg/dL
same,CRE,"[…], time 28 day",0.6 mg/dL
same,Ca,"[…], time 28 day",10.3 mg/dL
same,Cl,"[…], time 28 day",105.2 meq/L
same,DBIL,"[…], time 28 day",0.016 mg/dL
same,GLC,"[…], time 28 day",195 mg/dL
same,IP,"[…], time 28 day",6.3 mg/dL
same,K,"[…], time 28 day",4.7 meq/L
same,LDH,"[…], time 28 day",78.2 IU/L
same,Na,"[…], time 28 day",142.6 meq/L
same,PL,"[…], time 28 day",139 mg/dL
same,RALB,"[…], time 28 day",4 g/dL
same,TBIL,"[…], time 28 day",0.3 mg/dL
same,TC,"[…], time 28 day",62.6 mg/dL
same,TG,"[…], time 28 day",136.4 mg/dL
same,TP,"[…], time 28 day",6.2 g/dL
same,gamma-GTP,"[…], time 28 day",1.6 IU/L
